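Five compound concentrations were applied to cells in 96-well plates for 48 hours; endpoints were derived by simple linear interpolation of the resulting dose-response curve. GI50: concentration for 50% inhibition of growth.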 Activity calls are given as the source filed them. Cut-off read from the data, not from the text of the source: active = GI50 up to about 1.1 µM and inactive = higher.
Assays:
Assay in all cases: inhibition of tumour cell growth, NCI panel, 48 h
M14 = system: M14
SF-539 = system: SF-539
KM-20L2 = system: KM-20L2
SN12C = system: SN12C
UACC-62 = system: UACC-62
HCT-15 = system: HCT-15
HCT-116 = system: HCT-116
U-251 = system: U-251
786-0 = system: 786-0
OVCAR-4 = system: OVCAR-4
SNB-19 = system: SNB-19
RPMI-8226 = system: RPMI-8226
SW-620 = system: SW-620
HCC 2998 = system: HCC 2998
SK-MEL-5 = system: SK-MEL-5
M19-MEL = system: M19-MEL

Compound | GI50 (M14) | GI50 (SF-539) | GI50 (KM-20L2) | GI50 (SN12C) | GI50 (UACC-62) | GI50 (HCT-15) | GI50 (HCT-116) | GI50 (U-251) | GI50 (786-0) | GI50 (OVCAR-4) | GI50 (SNB-19) | GI50 (RPMI-8226) | GI50 (SW-620) | GI50 (HCC 2998) | GI50 (SK-MEL-5) | GI50 (M19-MEL)
COc1ccc(C(=C(C#N)C#N)c2ccc(OC)cc2)cc1 | > 100 µM (inactive) | > 100 µM (inactive) | > 100 µM (inactive) | > 100 µM (inactive) | > 100 µM (inactive) | > 100 µM | > 100 µM (inactive) | > 100 µM (inactive) | > 100 µM (inactive) | > 100 µM (inactive) | > 100 µM (inactive) | > 100 µM (inactive) | > 100 µM (inactive) | > 100 µM (inactive) | – | –
COc1ccc(/C=C2\C(=O)Nc3ccccc32)cc1OC | > 100 µM (inactive) | 40.6 µM (inactive) | > 100 µM (inactive) | > 100 µM (inactive) | > 100 µM (inactive) | 53 µM | > 100 µM (inactive) | 28.9 µM (inactive) | 33.1 µM (inactive) | 97.3 µM (inactive) | 38.5 µM (inactive) | 23.1 µM (inactive) | 45.1 µM (inactive) | – | 64.4 µM (inactive) | –
COc1ccc2[nH]cc(CCNC(=O)[C@](O)(Cc3cn(C)c4ccccc34)[C@@]3(O)OCC(O)C3O)c2c1 (stereo partly drawn) | > 100 µM (inactive) | 40.4 µM (inactive) | > 100 µM (inactive) | > 100 µM (inactive) | 58.9 µM (inactive) | > 100 µM | 47.3 µM (inactive) | > 100 µM (inactive) | > 100 µM (inactive) | > 100 µM (inactive) | > 100 µM (inactive) | 39.4 µM (inactive) | > 100 µM (inactive) | > 100 µM (inactive) | > 100 µM (inactive) | > 100 µM (inactive)
COC(=O)c1cc2c(=O)n(C)c3ccccc3n2c1C(=O)OC | 47.9 µM (inactive) | 26.1 µM (inactive) | 53.3 µM (inactive) | 42.5 µM (inactive) | > 100 µM (inactive) | 80.2 µM | – | 24.1 µM (inactive) | 22.8 µM (inactive) | > 100 µM (inactive) | 34.7 µM (inactive) | 71.9 µM (inactive) | 64.9 µM (inactive) | 33.5 µM (inactive) | > 100 µM (inactive) | > 100 µM (inactive)
CC[C@H]1CC(=O)c2c(cc3c(c2O)C(=O)c2ccccc2C3=O)[C@@]1(C#N)C(=O)OC(C)(C)C | 3.65 µM (inactive) | 4.13 µM (inactive) | 4.08 µM (inactive) | 3.97 µM (inactive) | 4.35 µM (inactive) | 2.07 µM | 2.7 µM (inactive) | 3.48 µM (inactive) | 4.15 µM (inactive) | – | 3.79 µM (inactive) | 3.33 µM (inactive) | 3.65 µM (inactive) | 5.47 µM (inactive) | 1.9 µM (inactive) | 3.7 µM (inactive)
O=C(N/C(=C\c1ccc(Cl)cc1)c1nc2ccccc2[nH]1)c1ccccc1 | 18.7 µM (inactive) | 16.7 µM (inactive) | 2.44 µM (inactive) | 21.9 µM (inactive) | 16 µM (inactive) | 26.4 µM | 13.7 µM (inactive) | 22.2 µM (inactive) | 18.9 µM (inactive) | 14.7 µM (inactive) | 27.2 µM (inactive) | 16.7 µM (inactive) | 27.4 µM (inactive) | – | 20.1 µM (inactive) | 19 µM (inactive)
C[N+](C)(C)CC(=O)NC(=O)N/N=C\C(CC#N)CN(Cc1ccccc1)Cc1ccccc1 (stereo not drawn) | > 100 µM (inactive) | > 100 µM (inactive) | > 100 µM (inactive) | > 100 µM (inactive) | > 100 µM (inactive) | > 100 µM | > 100 µM (inactive) | > 100 µM (inactive) | > 100 µM (inactive) | > 100 µM (inactive) | > 100 µM (inactive) | – | > 100 µM (inactive) | 66.4 µM (inactive) | > 100 µM (inactive) | > 100 µM (inactive)
CCN1C2=NC(=O)N(C)C(=O)C2(Cl)C(C(SC)S(=O)(=O)c2ccc(C)cc2)c2ccccc21 (stereo not drawn) | 24.2 µM (inactive) | 37.5 µM (inactive) | 57.8 µM (inactive) | 61 µM (inactive) | 44.7 µM (inactive) | – | 20.1 µM (inactive) | 79.8 µM (inactive) | 25.1 µM (inactive) | 22.9 µM (inactive) | 51.9 µM (inactive) | 12.7 µM (inactive) | 31.6 µM (inactive) | > 100 µM (inactive) | 35.6 µM (inactive) | 24.7 µM (inactive)
CC(=O)OC1CC2CCN3C(=O)c4cc5c(cc4[C@H](C1OC(C)=O)C23)OCO5 (stereo partly drawn) | > 100 µM (inactive) | > 100 µM (inactive) | > 100 µM (inactive) | > 100 µM (inactive) | > 100 µM (inactive) | > 100 µM | > 100 µM (inactive) | > 100 µM (inactive) | > 100 µM (inactive) | – | > 100 µM (inactive) | > 100 µM (inactive) | > 100 µM (inactive) | > 100 µM (inactive) | – | > 100 µM (inactive)
